# Calls of active or inactive are those of the source. The calls are words filed in the database; no cut-off is given here.
# Tests used:
# [1] = tested on: Aspergillus fumigatus; test: Antimicrobial activity against Aspergillus fumigatus AF293 infected in hartley guinea pig assessed as decreased fungal burden in lung at 10 mg/kg, po BID for 8 days postinfection; assay type: functional, organism-based; design: dose 10 mg/kg
# [2] = tested on: Aspergillus fumigatus; test: Antimicrobial activity against Aspergillus fumigatus AF293 infected in hartley guinea pig assessed as log reduction in […] fungal burden at 10 mg/kg, po BID after 4 to 7 days postinfection; assay type: functional
# [3] = tested on: Aspergillus fumigatus; test: Antimicrobial activity against Aspergillus fumigatus AF293 infected in hartley guinea pig assessed as decreased fungal burden in lung at 10 mg/kg, po BID after 4 to 6 days postinfection; assay type: functional, organism-based; design: dose 10 mg/kg
# [4] = tested on: Aspergillus fumigatus; test: Antimicrobial activity against Aspergillus fumigatus AF293 infected in hartley guinea pig assessed as time to death at 10 mg/kg, po BID for 8 days postinfection; assay type: functional; details: AF293, in Cavia porcellus, 192 h
# [5] = tested on: Aspergillus fumigatus; test: Antimicrobial activity against Aspergillus fumigatus AF293 infected in hartley guinea pig assessed as survival rate at 10 mg/kg, po BID for 8 days postinfection; assay type: functional
smiles,measurement,setting,value
C[C@@H](c1ncncc1F)[C@](O)(Cn1cncn1)c1ccc(F)cc1F [VORICONAZOLE],Activity,[1],Active
same,FC,[2],2.98
same,Activity,[3],Active
same,survival at 10 mg/kg,[4],62.5%
same,Survival,[5],9.13 days
